# Test results taken from ChEMBL document CHEMBL1154915, “Selection of inhibitory peptides for Aurora-A kinase from a phage-displayed library of helix-loop-helix peptides” (Bioorg Med Chem Lett, 2010).
# Calls of active or inactive are those of the source. No rule for the calls is given here. Residues, ends and D or L forms follow the SMILES beside them.
# Biological target: T1, Aurora kinase A (Homo sapiens) (UniProt O14965)
# T1 sequence (whole entry): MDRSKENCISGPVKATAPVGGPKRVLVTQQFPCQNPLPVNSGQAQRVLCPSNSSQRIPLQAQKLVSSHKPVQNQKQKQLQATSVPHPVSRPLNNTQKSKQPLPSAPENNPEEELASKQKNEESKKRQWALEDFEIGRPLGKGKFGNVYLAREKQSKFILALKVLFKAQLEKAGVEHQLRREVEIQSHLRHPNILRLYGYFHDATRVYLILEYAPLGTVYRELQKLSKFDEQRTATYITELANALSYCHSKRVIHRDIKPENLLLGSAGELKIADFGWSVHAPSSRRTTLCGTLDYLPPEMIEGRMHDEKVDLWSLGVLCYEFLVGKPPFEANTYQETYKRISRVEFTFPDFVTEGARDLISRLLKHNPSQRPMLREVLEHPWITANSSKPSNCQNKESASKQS
# Assay: Binding affinity to GST-tagged Aurora A after 1 hr by ELISA
row,Compound,Activity
1,CC(C)C[C@H](NC(=O)[C@H](C)NC(=O)[C@H](C)NC(=O)[C@H](CC(C)C)NC(=O)[C@H](CCC(=O)O)NC(=O)[C@H](C)NC(=O)[C@H](CCC(=O)O)NC(=O)[C@H](CC(C)C)NC(=O)[C@H](C)NC(=O)[C@H](C)NC(=O)[C@H](CC(C)C)NC(=O)[C@H](CCC(=O)O)NC(=O)[C@@H](C)N)C(=O)N[C@@H](CCC(=O)O)C(=O)NCC(=O)N[C@H](C(=O)N[C@@H](CC(C)C)C(=O)N[C@H](C(=O)N[C@H](C(=O)N[C@@H](CO)C(=O)N[C@@H](Cc1c[nH]c2ccccc12)C(=O)N[C@@H](CC(=O)O)C(=O)N1CCC[C@H]1C(=O)N[C@@H](Cc1c[nH]c2ccccc12)C(=O)NCC(=O)N[C@@H](CCCCN)C(=O)N[C@@H](CC(C)C)C(=O)N[C@@H](C)C(=O)N[C@@H](C)C(=O)N[C@@H](CC(C)C)C(=O)N[C@@H](CCCCN)C(=O)N[C@@H](C)C(=O)N[C@@H](CCCCN)C(=O)N[C@@H](CC(C)C)C(=O)N[C@@H](C)C(=O)N[C@@H](C)C(=O)N[C@@H](CC(C)C)C(=O)N[C@@H](CCCCN)C(=O)N[C@@H](C)C(=O)O)C(C)C)C(C)C)[C@H](C)O,Active
2,CC[C@H](C)[C@H](NC(=O)[C@H](CCCNC(=N)N)NC(=O)CNC(=O)[C@H](CC(C)C)NC(=O)[C@H](CC(C)C)NC(=O)[C@@H]1CCCN1C(=O)[C@H](CO)NC(=O)[C@H](Cc1c[nH]c2ccccc12)NC(=O)CNC(=O)[C@H](CCC(=O)O)NC(=O)[C@H](CC(C)C)NC(=O)[C@H](C)NC(=O)[C@H](C)NC(=O)[C@H](CC(C)C)NC(=O)[C@H](CCC(=O)O)NC(=O)[C@H](C)NC(=O)[C@H](CCC(=O)O)NC(=O)[C@H](CC(C)C)NC(=O)[C@H](C)NC(=O)[C@H](C)NC(=O)[C@H](CC(C)C)NC(=O)[C@H](CCC(=O)O)NC(=O)[C@@H](C)N)C(=O)N[C@@H](CC(C)C)C(=O)NCC(=O)N[C@@H](CCCCN)C(=O)N[C@@H](CC(C)C)C(=O)N[C@@H](C)C(=O)N[C@@H](C)C(=O)N[C@@H](CC(C)C)C(=O)N[C@@H](CCCCN)C(=O)N[C@@H](C)C(=O)N[C@@H](CCCCN)C(=O)N[C@@H](CC(C)C)C(=O)N[C@@H](C)C(=O)N[C@@H](C)C(=O)N[C@@H](CC(C)C)C(=O)N[C@@H](CCCCN)C(=O)N[C@@H](C)C(=O)O,Active
3,CC[C@H](C)[C@H](NC(=O)[C@H](CCCNC(=N)N)NC(=O)[C@H](CCCNC(=N)N)NC(=O)[C@H](CO)NC(=O)[C@H](C)NC(=O)CNC(=O)[C@H](CCC(=O)O)NC(=O)[C@H](CC(C)C)NC(=O)[C@H](C)NC(=O)[C@H](C)NC(=O)[C@H](CC(C)C)NC(=O)[C@H](CCC(=O)O)NC(=O)[C@H](C)NC(=O)[C@H](CCC(=O)O)NC(=O)[C@@H]1CCCN1C(=O)[C@H](C)NC(=O)[C@H](C)NC(=O)[C@H](CC(C)C)NC(=O)[C@H](CCC(=O)O)NC(=O)[C@@H](C)N)C(=O)N[C@@H](CS)C(=O)N[C@@H](CS)C(=O)N[C@@H](CO)C(=O)N[C@@H](Cc1c[nH]c2ccccc12)C(=O)NCC(=O)N[C@@H](CCCCN)C(=O)N[C@@H](CC(C)C)C(=O)N[C@@H](C)C(=O)N[C@@H](C)C(=O)N[C@@H](CC(C)C)C(=O)N[C@@H](CCCCN)C(=O)N[C@@H](C)C(=O)N[C@@H](CCCCN)C(=O)N[C@@H](CC(C)C)C(=O)N[C@@H](C)C(=O)N[C@@H](C)C(=O)N[C@@H](CC(C)C)C(=O)N[C@@H](CCCCN)C(=O)N[C@@H](C)C(=O)O,Active
4,CSCC[C@H](NC(=O)[C@@H]1CCCN1C(=O)[C@H](CCC(N)=O)NC(=O)[C@@H]1CCCN1C(=O)CNC(=O)[C@H](CCC(=O)O)NC(=O)[C@H](CC(C)C)NC(=O)[C@H](C)NC(=O)[C@H](C)NC(=O)[C@H](CC(C)C)NC(=O)[C@H](CCC(=O)O)NC(=O)[C@H](C)NC(=O)[C@H](CCC(=O)O)NC(=O)[C@H](CC(C)C)NC(=O)[C@H](C)NC(=O)[C@H](C)NC(=O)[C@H](CC(C)C)NC(=O)[C@H](CCC(=O)O)NC(=O)[C@@H](C)N)C(=O)N[C@@H](Cc1c[nH]c2ccccc12)C(=O)NCC(=O)N[C@@H](CO)C(=O)N[C@@H](Cc1c[nH]c2ccccc12)C(=O)N[C@@H](CCCNC(=N)N)C(=O)NCC(=O)N[C@@H](CCCCN)C(=O)N[C@@H](CC(C)C)C(=O)N[C@@H](C)C(=O)N[C@@H](C)C(=O)N[C@@H](CC(C)C)C(=O)N[C@@H](CCCCN)C(=O)N[C@@H](C)C(=O)N[C@@H](CCCCN)C(=O)N[C@@H](CC(C)C)C(=O)N[C@@H](C)C(=O)N[C@@H](C)C(=O)N[C@@H](CC(C)C)C(=O)N[C@@H](CCCCN)C(=O)N[C@@H](C)C(=O)O,Active
5,CC(C)C[C@H](NC(=O)[C@H](C)NC(=O)[C@H](C)NC(=O)[C@H](CC(C)C)NC(=O)[C@H](CCC(=O)O)NC(=O)[C@H](C)NC(=O)[C@H](CCC(=O)O)NC(=O)[C@H](CC(C)C)NC(=O)[C@H](C)NC(=O)[C@H](C)NC(=O)[C@H](CC(C)C)NC(=O)[C@H](CCC(=O)O)NC(=O)[C@H](C)N)C(=O)N[C@@H](CCC(=O)O)C(=O)NCC(=O)N[C@@H](CS)C(=O)N[C@H](C(=O)N[C@@H](CO)C(=O)N[C@H](C(=O)N[C@@H](Cc1ccc(O)cc1)C(=O)N[C@@H](CS)C(=O)N[C@H](C(=O)N[C@H](C(=O)N[C@@H](CO)C(=O)NCC(=O)N[C@@H](CCCCN)C(=O)N[C@@H](CC(C)C)C(=O)N[C@@H](C)C(=O)N[C@@H](C)C(=O)N[C@@H](CC(C)C)C(=O)N[C@@H](CCCCN)C(=O)N[C@@H](C)C(=O)N[C@@H](CCCCN)C(=O)N[C@@H](CC(C)C)C(=O)N[C@@H](C)C(=O)N[C@@H](C)C(=O)N[C@@H](CC(C)C)C(=O)N[C@@H](CCCCN)C(=O)N[C@@H](C)C(=O)O)C(C)C)[C@@H](C)O)C(C)C)[C@@H](C)O (H-AELAALEAELAALEGCTSVYCTVSGKLAALKAKLAALKA-OH),Active
6,H-AELAALEAELAALEGARSLVAQMTGKLAALKAKLAALKA-OH,Active
7,H-AELAALEAELAALEGDVAVAVRWDGKLAALKAKLAALKA-OH,Active
8,H-AELAALEAELAALEGGLSEVHGLSGKLAALKAKLAALKA-OH,Active
9,H-AELAALEAELAALEGGYERRGWGVTGKLAALKAKLAALKA-OH,Active
10,H-AELAALEAELAALEGKVYMFWTIMGKLAALKAKLAALKA-OH,Active

# The next lines start with the values.
row,Activity,Compound
1,Active,CC(C)C[C@H](NC(=O)[C@H](C)NC(=O)[C@H](C)NC(=O)[C@H](CC(C)C)NC(=O)[C@H](CCC(=O)O)NC(=O)[C@H](C)NC(=O)[C@H](CCC(=O)O)NC(=O)[C@H](CC(C)C)NC(=O)[C@H](C)NC(=O)[C@H](C)NC(=O)[C@H](CC(C)C)NC(=O)[C@H](CCC(=O)O)NC(=O)[C@@H](C)N)C(=O)N[C@@H](CCC(=O)O)C(=O)NCC(=O)N[C@@H](CCCNC(=N)N)C(=O)N1CCC[C@H]1C(=O)N[C@@H](Cc1ccccc1)C(=O)N[C@@H](Cc1c[nH]c2ccccc12)C(=O)N[C@@H](CC(C)C)C(=O)N[C@@H](CC(=O)O)C(=O)N[C@@H](CCCNC(=N)N)C(=O)N[C@@H](CC(C)C)C(=O)N[C@@H](CC(C)C)C(=O)NCC(=O)N[C@@H](CCCCN)C(=O)N[C@@H](CC(C)C)C(=O)N[C@@H](C)C(=O)N[C@@H](C)C(=O)N[C@@H](CC(C)C)C(=O)N[C@@H](CCCCN)C(=O)N[C@@H](C)C(=O)N[C@@H](CCCCN)C(=O)N[C@@H](CC(C)C)C(=O)N[C@@H](C)C(=O)N[C@@H](C)C(=O)N[C@@H](CC(C)C)C(=O)N[C@@H](CCCCN)C(=O)N[C@@H](C)C(=O)O
2,Active,CC(C)C[C@H](NC(=O)[C@H](C)NC(=O)[C@H](C)NC(=O)[C@H](CC(C)C)NC(=O)[C@H](CCC(=O)O)NC(=O)[C@H](C)NC(=O)[C@H](CCC(=O)O)NC(=O)[C@H](CC(C)C)NC(=O)[C@H](C)NC(=O)[C@H](C)NC(=O)[C@H](CC(C)C)NC(=O)[C@H](CCC(=O)O)NC(=O)[C@H](C)N)C(=O)N[C@@H](CCC(=O)O)C(=O)NCC(=O)N[C@@H](CCCNC(=N)N)C(=O)N[C@@H](CCCCN)C(=O)N[C@@H](CC(=O)O)C(=O)N[C@@H](Cc1ccc(O)cc1)C(=O)N[C@@H](Cc1ccccc1)C(=O)N[C@@H](Cc1cnc[nH]1)C(=O)N[C@@H](CC(C)C)C(=O)N[C@@H](Cc1c[nH]c2ccccc12)C(=O)N[C@@H](Cc1cnc[nH]1)C(=O)N[C@@H](CC(=O)O)C(=O)NCC(=O)N[C@@H](CCCCN)C(=O)N[C@@H](CC(C)C)C(=O)N[C@@H](C)C(=O)N[C@@H](C)C(=O)N[C@@H](CC(C)C)C(=O)N[C@@H](CCCCN)C(=O)N[C@@H](C)C(=O)N[C@H](CCCCN)C(=O)N[C@H](CC(C)C)C(=O)N[C@H](C)C(=O)N[C@H](C)C(=O)N[C@H](CC(C)C)C(=O)N[C@H](CCCCN)C(=O)N[C@H](C)C(=O)O
3,Active,CSCC[C@H](NC(=O)[C@@H]1CCCN1C(=O)[C@H](CCC(N)=O)NC(=O)[C@H](CO)NC(=O)CNC(=O)[C@H](Cc1c[nH]c2ccccc12)NC(=O)CNC(=O)[C@H](CCC(=O)O)NC(=O)[C@H](CC(C)C)NC(=O)[C@H](C)NC(=O)[C@H](C)NC(=O)[C@H](CC(C)C)NC(=O)[C@H](CCC(=O)O)NC(=O)[C@H](C)NC(=O)[C@H](CCC(=O)O)NC(=O)[C@H](CC(C)C)NC(=O)[C@H](C)NC(=O)[C@H](C)NC(=O)[C@H](CC(C)C)NC(=O)[C@H](CCC(=O)O)NC(=O)[C@@H](C)N)C(=O)N[C@@H](CC(=O)O)C(=O)N[C@@H](CO)C(=O)N[C@H](C(=O)NCC(=O)N[C@@H](CCCCN)C(=O)N[C@@H](CC(C)C)C(=O)N[C@@H](C)C(=O)N[C@@H](C)C(=O)N[C@@H](CC(C)C)C(=O)N[C@@H](CCCCN)C(=O)N[C@@H](C)C(=O)N[C@@H](CCCCN)C(=O)N[C@@H](CC(C)C)C(=O)N[C@@H](C)C(=O)N[C@@H](C)C(=O)N[C@@H](CC(C)C)C(=O)N[C@@H](CCCCN)C(=O)N[C@@H](C)C(=O)O)C(C)C
4,Active,H-AELAALEAELAALEGAPCLVMTTAGKLAALKAKLAALKA-OH
5,Active,H-AELAALEAELAALEGFPGRFGLFVGKLAALKAKLAALKA-OH
6,Active,H-AELAALEAELAALEGGKVAAWGFWGKLAALKAKLAALKA-OH
7,Active,H-AELAALEAELAALEGGSPRWYELLGKLAALKAKLAALKA-OH
8,Active,H-AELAALEAELAALEGGTKMWSLLVDGKLAALKAKLAALKA-OH
9,Active,H-AELAALEAELAALEGKGTQMWWLLGKLAALKAKLAALKA-OH
